Source: publication PMC12396409, “Screening and hit evaluation of a microbial metabolite library against the pathogenic Plasmodium falciparum and Toxoplasma gondii parasites” (International Journal for Parasitology: Drugs and Drug …, 2025)
Like-named read-outs stand apart in the source and are kept apart here.

Experiments:
[1] = tested on: P. falciparum 3D7 parasites; assay: P. falciparum growth inhibition assay, 2-cycle (120 h treatment), delayed-death screen and dose-response; format: cell-based, Plasmodium falciparum
[2] = tested on: P. falciparum 3D7 parasites; assay: P. falciparum growth inhibition assay, 1-cycle (72 h treatment), SYBR DNA staining (library screen at 2 μg/mL and dose-response); format: cell-based, Plasmodium falciparum
[3] = tested on: T. gondii RH strain (RH-Tub-eYFP) tachyzoites; assay: microbe, parasite or virus in culture; format: cell-based, Toxoplasma gondii; conditions: 72 h; for percent parasite growth at 2 µg/mL: Toxoplasma gondii
[4] = T. gondii, 2 μg/mL, values are growth (% of control)
[5] = library screen at 2 μg/mL, 120 h, % growth, replicate 1
[6] = library screen at 2 μg/mL, 120 h, % growth, replicate 2
[7] = library screen at 2 μg/mL, 72 h, % growth, replicate 1
[8] = library screen at 2 μg/mL, 72 h, % growth, replicate 2
[9] = library screen at 2 μg/mL, % growth, replicate 1
[10] = library screen at 2 μg/mL, % growth, replicate 2

## CO[C@@H]1[C@@H](OC(N)=O)[C@@H](O)[C@H](Oc2ccc3c(O)c(NC(=O)c4ccc(O)c(CC=C(C)C)c4)c(=O)oc3c2C)OC1(C)C [Novobiocin, reference compound]
[1]
  3) Fold change (72 h/120 h): 5.7
[1]; Plasmodium falciparum, 3D7, 120 h, P. falciparum, 2 μg/mL, 120 h; read-out: 2) Growth (%) at 120 h
  activity at 2 µg/mL: 14.2%
[2]; Plasmodium falciparum, 3D7, 72 h, P. falciparum, 2 μg/mL, 72 h; read-out: 1) Growth (%) at 72 h
  activity at 2 µg/mL: 81.4%
[3]; T. gondii, 2 μg/mL, mean of both replicates, growth (% of control)
  Mean: 51.41
[3]; [4]
  Replicate 1: 9.17
  Replicate 2: 93.65

## CS[C@H]1SC[C@H]2C(=O)N(C)[C@@H](C(C)C)C(=O)OC[C@@H](NC(=O)c3cnc4ccccc4n3)C(=O)N[C@@H](C)C(=O)N(C)[C@@H]1C(=O)N(C)[C@@H](C(C)C)C(=O)OC[C@@H](NC(=O)c1cnc3ccccc3n1)C(=O)N[C@@H](C)C(=O)N2C [Quinomycin A]
[1]; P. falciparum, 120 h, parasite screen 2 μg/mL, % growth, replicate 1
  Pf_120h_%Growth_Rep1: 15.40%
[1]; P. falciparum, 120 h, parasite screen 2 μg/mL, % growth, replicate 2
  Pf_120h_%Growth_Rep2: -11.60%
[2]; P. falciparum, 72 h, parasite screen 2 μg/mL, % growth, replicate 1
  Pf_72h_%Growth_Rep1: 8.36%
[2]; P. falciparum, 72 h, parasite screen 2 μg/mL, % growth, replicate 2
  Pf_72h_%Growth_Rep2: -0.61%
[3]; T. gondii, parasite screen 2 μg/mL, % growth, replicate 1
  Tg_72h_%Growth_Rep1: -0.75%
[3]; T. gondii, parasite screen 2 μg/mL, % growth, replicate 2
  Tg_72h_%Growth_Rep2: -0.09%

## C=C1CCO[C@]2([C@@H](O)[C@@](C)(O)COC(=O)c3ccccc3)NC(=O)[C@@]1(O)NC2=O [Bicyclomycin benzoate]
[1]; [5]
  Pf_120h_%Growth_Rep1: 148.77%
[1]; [6]
  Pf_120h_%Growth_Rep2: 99.84%
[2]; [7]
  Pf_72h_%Growth_Rep1: 94.43%
[2]; [8]
  Pf_72h_%Growth_Rep2: 88.43%
[3]; [9]
  Tg_72h_%Growth_Rep1: 81.93%
[3]; [10]
  Tg_72h_%Growth_Rep2: 95.48%

## C/C(=C\C(=O)OCCCCCCCCC(=O)O)C[C@@H]1OC[C@H](C[C@@H]2O[C@H]2[C@@H](C)[C@H](C)O)[C@@H](O)[C@H]1O [Pseudomonic acid]
[1]; Plasmodium falciparum, 3D7, P. falciparum, 120 h, parasite screen 2 μg/mL, % growth, replicate 1, read-out: Pf_120h_%Growth_Rep1
  activity at 2 µg/mL: 0.62%
[1]; Plasmodium falciparum, 3D7, P. falciparum, 120 h, parasite screen 2 μg/mL, % growth, replicate 2, read-out: Pf_120h_%Growth_Rep2
  activity at 2 µg/mL: 28.1%
[2]; Plasmodium falciparum, 3D7, P. falciparum, 72 h, parasite screen 2 μg/mL, % growth, replicate 1, read-out: Pf_72h_%Growth_Rep1
  activity at 2 µg/mL: 29.1%
[2]; Plasmodium falciparum, 3D7, P. falciparum, 72 h, parasite screen 2 μg/mL, % growth, replicate 2, read-out: Pf_72h_%Growth_Rep2
  activity at 2 µg/mL: 6.31%
[3]; T. gondii, parasite screen 2 μg/mL, % growth, replicate 1, read-out: Tg_72h_%Growth_Rep1
  percent parasite growth at 2 µg/mL: 70.8%
[3]; T. gondii, parasite screen 2 μg/mL, % growth, replicate 2, read-out: Tg_72h_%Growth_Rep2
  percent parasite growth at 2 µg/mL: 74.5%

## C[C@@H]1C=C2C(=O)O[C@@H]3CC[C@H](C1)[C@]23O [Galiellalactone]
[1]; [5]
  Pf_120h_%Growth_Rep1: 91.95%
[1]; [6]
  Pf_120h_%Growth_Rep2: 97.41%
[2]; [7]
  Pf_72h_%Growth_Rep1: 88.40%
[2]; [8]
  Pf_72h_%Growth_Rep2: 106.75%
[3]; [9]
  Tg_72h_%Growth_Rep1: 132.28%
[3]; [10]
  Tg_72h_%Growth_Rep2: 99.14%

## CC1=C(O)C(=O)[C@@H]2O[C@@H]2C1=O [Terreic acid]
[1]; Plasmodium falciparum, 3D7, 120 h, P. falciparum, 120 h, screen at 2 μg/mL, replicate 1, read-out: Pf_120h_%Growth_Rep1
  activity at 2 µg/mL: 100%
[1]; Plasmodium falciparum, 3D7, 120 h, P. falciparum, 120 h, screen at 2 μg/mL, replicate 2, read-out: Pf_120h_%Growth_Rep2
  activity at 2 µg/mL: 98%
[2]; Plasmodium falciparum, 3D7, 72 h, P. falciparum, 72 h, screen at 2 μg/mL, replicate 1, read-out: Pf_72h_%Growth_Rep1
  activity at 2 µg/mL: 89.2%
[2]; Plasmodium falciparum, 3D7, 72 h, P. falciparum, 72 h, screen at 2 μg/mL, replicate 2, read-out: Pf_72h_%Growth_Rep2
  activity at 2 µg/mL: 121%
[3]; T. gondii, screen at 2 μg/mL, replicate 1, read-out: Tg_72h_%Growth_Rep1
  percent parasite growth at 2 µg/mL: 132%
[3]; T. gondii, screen at 2 μg/mL, replicate 2, read-out: Tg_72h_%Growth_Rep2
  percent parasite growth at 2 µg/mL: 83%

## CCCCCCCCCCCCCCCc1cc(O)cc(O)c1 [Adipostatin A]
[1]; [5]
  Pf_120h_%Growth_Rep1: 83.04%
[1]; [6]
  Pf_120h_%Growth_Rep2: 100.82%
[2]; [7]
  Pf_72h_%Growth_Rep1: 85.82%
[2]; [8]
  Pf_72h_%Growth_Rep2: 88.98%
[3]; [9]
  Tg_72h_%Growth_Rep1: 103.30%
[3]; [10]
  Tg_72h_%Growth_Rep2: 96.65%

## C=C1[C@@H](C)[C@H]2[C@H](Cc3ccccc3)NC(=O)[C@]23[C@H](OC(C)=O)[C@@H]2O[C@H]2[C@@](C)(O)C(=O)[C@@H](C)C/C=C\[C@H]3[C@@H]1O [Epoxycytochalasin D, 19,20-]
[1]; [5]
  Pf_120h_%Growth_Rep1: 6.52%
[1]; [6]
  Pf_120h_%Growth_Rep2: -0.52%
[2]; [7]
  Pf_72h_%Growth_Rep1: 5.59%
[2]; [8]
  Pf_72h_%Growth_Rep2: 1.64%
[3]; [9]
  Tg_72h_%Growth_Rep1: 2.15%
[3]; [10]
  Tg_72h_%Growth_Rep2: 1.47%
